*1 amine or outer side, *2 acyl side, *3 side chain or, on linkers, in order; H or OH if unused. Where a SMILES comes first, the peptide text is derived from it. Bridges are numbered along the chain shown (N, C = ends). [ ]: non-standard residue; d: D form. The star is where a group is joined. hPhe(3-Cl-4-CF3) = N[C@@H](CCc1ccc(C(F)(F)F)c(Cl)c1)C(=O)O; NPrPhe(4-CF3) = CCCN[C@@H](Cc1ccc(C(F)(F)F)cc1)C(=O)O; X46 = C=CCCN([C@@H](Cc1ccc(C)cc1)C(=O)[*:2])[*:1]; NMeGly(cPent) = CN[C@H](C(=O)O)C1CCCC1; NMeD = CN[C@@H](CC(=O)O)C(=O)O; NMeL = CN[C@@H](CC(C)C)C(=O)O; X10 = N#CCN(CC(=O)[*:2])[*:1]; Morpholide = C1CN(*)CCO1; Ac5c = NC1(C(=O)O)CCCC1; Sar = CNCC(=O)O
What was measured:
[1] = test system: human lung cancer strain NCI-H441; format: cell-based
Outline: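 Readout: […] after the ATP-based reagent. Compound: serial dilutions in dimethyl sulfoxide.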

HRAS wild-type protein = HRAS wild-type protein (Homo sapiens, UniProt P01112); assay: Binding to HRAS by surface plasmon resonance (SPR), KD and KD ratio to KRAS
Chain of HRAS wild-type protein (P01112 whole entry): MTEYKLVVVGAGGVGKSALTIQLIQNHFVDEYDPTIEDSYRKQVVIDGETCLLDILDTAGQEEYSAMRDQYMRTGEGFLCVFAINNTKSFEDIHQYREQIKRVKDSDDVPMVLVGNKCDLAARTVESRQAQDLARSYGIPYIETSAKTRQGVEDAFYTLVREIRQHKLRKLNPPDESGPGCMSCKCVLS
Outline: (§1)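 GDP-bound biotin-Avi RAS captured at ~100–300 RU, 30°C, pH 7.4 HBS containing 10 µM GDP, 10 mM MgCl2, 1 mM DTT, 0.01% Tween 20 and 4% DMSO. KD by 1:1 fitting.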

[2] = target: GDP-bound NRAS wild-type protein (Homo sapiens, UniProt P01111); assay: Binding to NRAS by surface plasmon resonance (SPR), KD and KD ratio to KRAS
Chain of GDP-bound NRAS wild-type protein (P01111 whole entry): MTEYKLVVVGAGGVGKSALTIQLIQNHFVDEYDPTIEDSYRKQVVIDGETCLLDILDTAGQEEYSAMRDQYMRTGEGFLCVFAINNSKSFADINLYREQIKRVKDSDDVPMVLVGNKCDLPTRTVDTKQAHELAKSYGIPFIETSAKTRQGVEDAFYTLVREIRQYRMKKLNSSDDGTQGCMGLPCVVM
Outline: as §1

[3] = ratio of the KD value with respect to HRAS wild-type protein to the KD value with respect to KRAS
[4] = ratio of the KD value with respect to GDP-bound NRAS wild-type protein to the KD value with respect to KRAS
[5] = ratio of KD for HRAS wild-type protein to KD for KRAS
[6] = ratio of KD for GDP-bound NRAS wild-type protein to KD for KRAS
[7] = ratio of KD value for HRAS wild-type protein to KD value for KRAS (SPR)
[8] = ratio of KD value for GDP-bound NRAS wild-type protein to KD value for KRAS (SPR)

Structure (SMILES) | IC50 [1] | HRAS /KRAS (HRAS wild-type protein; [3]) | NRAS /KRAS [2, 4] | HRAS /KRAS (HRAS wild-type protein; [5]) | NRAS /KRAS [2, 6] | also measured
CCC[C@H]1C(=O)N[C@@H]([C@@H](C)CC)C(=O)N(C)CC(=O)N(C)[C@H]2C/C=C\CCN(C2=O)[C@@H](Cc2ccc(C)cc2)C(=O)N(C)CC(=O)N[C@@H](CCc2ccc(C(F)(F)F)c(Cl)c2)C(=O)N2C[C@H](CC)C[C@H]2C(=O)NC2(CC(C)(C)C2)C(=O)N(C)[C@@H](C2CCCC2)C(=O)N(C)[C@H](C(=O)N(C)C)CC(=O)N1C [PP2212] | 23.5 nM | B (a compound having 3 or more and less than 10 is denoted as B) | A (a compound having 10 or more and less than 20 is denoted as A) | – | – | –
CCC[C@H]1C(=O)N[C@@H](C2CCCCC2)C(=O)N(C)CC(=O)N(C)[C@H]2C/C=C\CCN(C2=O)[C@@H](Cc2ccc(C(F)(F)F)cc2)C(=O)N(C)CC(=O)N[C@@H](CCc2ccc(C(F)(F)F)c(Cl)c2)C(=O)N2C[C@H](OCC)C[C@H]2C(=O)NC2(CC(C)(C)C2)C(=O)N(C)[C@@H](C2CCCC2)C(=O)N(C)[C@H](C(=O)N(C)C)CC(=O)N1C [PP2996] | 13.7 nM | – | – | A (a compound having 10 or more and less than 20 is denoted as A) | AA (a compound having 20 or more is denoted as AA) | –
CCC[C@H]1C(=O)N[C@@H]([C@@H](C)CC)C(=O)N(C)CC(=O)N(C)[C@H]2C/C=C\CCN(C2=O)[C@@H](Cc2ccc(C)cc2)C(=O)N(C)CC(=O)N[C@@H](CCc2ccc(C(F)(F)F)c(Cl)c2)C(=O)N2C[C@H](OCC)C[C@H]2C(=O)NC2(CC(C)(C)C2)C(=O)N(C)[C@@H](C2CCCC2)C(=O)N(C)[C@H](C(=O)N(C)C)CC(=O)N1C [PP1896] | 5.3 nM | – | – | – | – | HRAS /KRAS (HRAS wild-type protein; [7]): B (a compound having 3 or more and less than 10 is denoted as B); NRAS /KRAS [2, 8]: A (a compound having 10 or more and less than 20 is denoted as A)
C=CCN1CC(=O)N(C)[C@H]2C/C=C\CCN(C2=O)[C@@H](Cc2ccc(C)cc2)C(=O)N(C)CC(=O)N[C@@H](CCc2ccc(C(F)(F)F)c(OC)c2)C(=O)N2C[C@H](OCC)C[C@H]2C(=O)NC2(CC(C)(C)C2)C(=O)N(C)[C@@H](C2CCCC2)C(=O)N(C)[C@H](C(=O)N(C)C)CC(=O)N(C)[C@@H](CCC)C(=O)N[C@@H]([C@@H](C)CC)C1=O [PP2098] | 8.4 nM | A (a compound having 10 or more and less than 20 is denoted as A) | A (a compound having 10 or more and less than 20 is denoted as A) | – | – | –
CCC(CC)[C@@H]1NC(=O)[C@H](CC(C)C)N(C)C(=O)C[C@@H](C(=O)N2CCOCC2)N(C)C(=O)[C@H](C2CCCC2)N(C)C(=O)C2(CCCC2)NC(=O)[C@@H]2CCCN2C(=O)[C@H](CCc2cc(F)c(C(F)(F)F)c(F)c2)NC(=O)CN(C)C(=O)[C@H](Cc2ccc(C(F)(F)F)cc2)N2CCCCC[C@@H](C2=O)N(C)C(=O)CN(C)C1=O [PP0523] | 734 nM | B (a compound having 3 or more and less than 10 is denoted as B) | A (a compound having 10 or more and less than 20 is denoted as A) | – | – | –
C=CCCN1C(=O)CN(C)C(=O)CN(C)C(=O)[C@H]([C@@H](C)CC)NC(=O)[C@H](CC(C)C)N(C)C(=O)C[C@@H](C(=O)N2CCOCC2)N(C)C(=O)[C@H](C2CCCC2)N(C)C(=O)C2(CCCC2)NC(=O)[C@@H]2CCCN2C(=O)[C@H](CCc2ccc(C(F)(F)F)c(Cl)c2)NC(=O)CN(C)C(=O)[C@@H]1Cc1ccc(C)cc1 [PP0101] ([NMeL]I[Sar][Sar][X46][Sar][hPhe(3-Cl-4-CF3)]P[Ac5c][NMeGly(cPent)][NMeD]-Morpholide; lactam N-11) | 10.4 nM | – | – | C (A compound having a KD ratio of 0.1 or more and less than 3 is denoted as C) | B (a compound having 3 or more and less than 10 is denoted as B) | –
CCCN1C(=O)CN(C)C(=O)CN(CC#N)C(=O)[C@H]([C@@H](C)CC)NC(=O)[C@H](CC(C)C)N(C)C(=O)C[C@@H](C(=O)N2CCOCC2)N(C)C(=O)[C@H](C2CCCC2)N(C)C(=O)C2(CCCC2)NC(=O)[C@@H]2CCCN2C(=O)[C@H](CCc2ccc(C(F)(F)F)c(Cl)c2)NC(=O)CN(C)C(=O)[C@@H]1Cc1ccc(C(F)(F)F)cc1 [PP0254] ([NMeL]I[X10][Sar][NPrPhe(4-CF3)][Sar][hPhe(3-Cl-4-CF3)]P[Ac5c][NMeGly(cPent)][NMeD]-Morpholide; lactam N-11) | 5.6 nM | – | – | C (A compound having a KD ratio of 0.1 or more and less than 3 is denoted as C) | B (a compound having 3 or more and less than 10 is denoted as B) | –
CCCN(C)C(=O)[C@@H]1CC(=O)N(C)[C@@H](C2CCC2)C(=O)N[C@@H]([C@@H](C)CC)C(=O)N(C)CC(=O)N(C)[C@H]2C/C=C\CCN(C2=O)[C@@H](Cc2ccc(C(F)(F)F)cc2)C(=O)N(C)CC(=O)N[C@@H](CCc2ccc(C(F)(F)F)c(OC)c2)C(=O)N2C[C@@H](C)C[C@H]2C(=O)NC2(CCC2)C(=O)N(C)[C@@H](C2CCCC2)C(=O)N1C [PP2072] | 8.5 nM | A (a compound having 10 or more and less than 20 is denoted as A) | A (a compound having 10 or more and less than 20 is denoted as A) | – | – | –

Second part, led by results:

IC50 [1] | Structure (SMILES) | HRAS /KRAS (HRAS wild-type protein; [3]) | NRAS /KRAS [2, 4] | HRAS /KRAS (HRAS wild-type protein; [5]) | NRAS /KRAS [2, 6] | also measured
60.6 nM | CC[C@@H]1C[C@H]2C(=O)NC3(CCCC3)C(=O)N(C)[C@@H](C3CCCC3)C(=O)N(C)[C@H](C(=O)N(C)CC)CC(=O)N(C)[C@@H](C)C(=O)N[C@@H]([C@@H](C)CC)C(=O)N(C)CC(=O)N(C)[C@H]3C/C=C\CCN(C3=O)[C@@H](Cc3ccc(C(F)(F)F)cc3)C(=O)N(C)CC(=O)N[C@@H](CCc3cc(F)c(C(F)(F)F)c(F)c3)C(=O)N2C1 [PP2271] | A (a compound having 10 or more and less than 20 is denoted as A) | A (a compound having 10 or more and less than 20 is denoted as A) | – | – | –
8.1 nM | CCCN(C)C(=O)[C@@H]1CC(=O)N(C)[C@@H](C)C(=O)N[C@@H]([C@@H](C)CC)C(=O)N(C)CC(=O)N(C)[C@H]2C/C=C\CCN(C2=O)[C@@H](Cc2ccc(C(F)(F)F)cc2)C(=O)N(C)CC(=O)N[C@@H](CCc2cc(F)c(C(F)(F)F)c(F)c2)C(=O)N2C[C@H](OCC)C[C@H]2C(=O)NC2(CCC2)C(=O)N(C)[C@@H](C2CCCC2)C(=O)N1C [PP1666] | – | – | – | – | HRAS /KRAS (HRAS wild-type protein; [7]): A (a compound having 10 or more and less than 20 is denoted as A); NRAS /KRAS [2, 8]: A (a compound having 10 or more and less than 20 is denoted as A)
16.7 nM | CCC[C@H]1C(=O)N[C@@H]([C@@H](C)CC)C(=O)N(C)CC(=O)N(C)[C@H]2C/C=C\CCN(C2=O)[C@@H](Cc2ccc(C(F)(F)F)cc2)C(=O)N(C)CC(=O)N[C@@H](CCc2ccc(C(F)(F)F)c(Cl)c2)C(=O)N2C[C@H](OCC)C[C@H]2C(=O)NC2(CC(C)(C)C2)C(=O)N(C)[C@@H](CC(F)(F)F)C(=O)N(C)[C@H](C(=O)N(C)C)CC(=O)N1C [PP2975] | – | – | A (a compound having 10 or more and less than 20 is denoted as A) | A (a compound having 10 or more and less than 20 is denoted as A) | –
1.8 nM | CC[C@H](C)[C@@H]1NC(=O)[C@H](CC(F)(F)F)N(C)C(=O)C[C@@H](C(=O)N(C)C)N(C)C(=O)[C@H](C2CCCC2)N(C)C(=O)C2(CC(C)(C)C2)NC(=O)[C@@H]2CCCN2C(=O)[C@H](CCc2cc(F)c(C(F)(F)F)c(F)c2)NC(=O)CN(C)C(=O)[C@H](Cc2ccc(C(F)(F)F)cc2)N2CC/C=C\C[C@@H](C2=O)N(C)C(=O)CN(C)C1=O [PP1722] | – | – | – | – | HRAS /KRAS (HRAS wild-type protein; [7]): A (a compound having 10 or more and less than 20 is denoted as A); NRAS /KRAS [2, 8]: AA (a compound having 20 or more is denoted as AA)
2.5 nM | CCCOC[C@H]1C(=O)N[C@@H]([C@@H](C)CC)C(=O)N(C)CC(=O)N(C)[C@H]2C/C=C\CCN(C2=O)[C@@H](Cc2ccc(C(F)(F)F)cc2)C(=O)N(C)CC(=O)N[C@@H](CCc2cc(F)c(C(F)(F)F)c(F)c2)C(=O)N2CC(F)(F)C[C@H]2C(=O)NC2(CC(C)(C)C2)C(=O)N(C)[C@@H](C2CCCC2)C(=O)N(C)[C@H](C(=O)N(C)C)CC(=O)N1C [PP1718] | – | – | – | – | HRAS /KRAS (HRAS wild-type protein; [7]): A (a compound having 10 or more and less than 20 is denoted as A); NRAS /KRAS [2, 8]: AA (a compound having 20 or more is denoted as AA)
12.4 nM | CCO[C@@H]1C[C@H]2C(=O)NC3(CCC3)C(=O)N(C)[C@@H](C3CCCC3)C(=O)N(C)[C@H](C(=O)N(C)C)CC(=O)N(C)[C@@H](CC(F)(F)F)C(=O)N[C@@H]([C@@H](C)CC)C(=O)N(C)CC(=O)N(C)[C@H]3C/C=C\CCN(C3=O)[C@@H](Cc3ccc(C(F)(F)F)cc3)C(=O)N(C)CC(=O)N[C@@H](CCc3cc(F)c(C(F)(F)F)c(F)c3)C(=O)N2C1 [PP1124] | – | – | B (a compound having 3 or more and less than 10 is denoted as B) | A (a compound having 10 or more and less than 20 is denoted as A) | –
7.6 nM | CCO[C@@H]1C[C@H]2C(=O)NC3(CCC3)C(=O)N(C)[C@@H](C3CCCC3)C(=O)N(C)[C@H](C(=O)N(C)CCOC)CC(=O)N(C)[C@@H](CC(C)C)C(=O)N[C@@H]([C@@H](C)CC)C(=O)N(C)CC(=O)N(C)[C@H]3C/C=C\CCN(C3=O)[C@@H](Cc3ccc(C(F)(F)F)cc3)C(=O)N(C)CC(=O)N[C@@H](CCc3cc(F)c(C(F)(F)F)c(F)c3)C(=O)N2C1 [PP1317] | – | – | – | – | HRAS /KRAS (HRAS wild-type protein; ratio of KD with respect to HRAS wild-type protein to KD with respect to KRAS): B (a compound having 3 or more and less than 10 is denoted as B); NRAS /KRAS ([2]; ratio of KD with respect to GDP-bound NRAS wild-type protein to KD with respect to KRAS): A (a compound having 10 or more and less than 20 is denoted as A)

From patent EP4603105A1, “PHARMACEUTICAL COMPOSITION CONTAINING CYCLIC COMPOUND HAVING SELECTIVE KRAS INHIBITORY EFFECT AGAINST HRAS AND NRAS” (CHUGAI SEIYAKU KABUSHIKI KAISHA, priority 2022, dated 2024)
